Values joined by “and” are separate entries in the source; they are usually repeats but may differ in a detail not shown here. Equal values may be shown once.
Experiments:
Assay type in all cases: in vivo
[1] = system: Phaedon cochleariae larvae; test: Phaedon cochleariae larvae test, treated cabbage leaves; conditions: 144 h, after 6 d
Description: (§1) The action to be expected for a given combination of two active substance can be calculated as follows according to S. R. Colby, Weeds 15 (1967), 20-22:
(§2) If • X stands for the mortality rate expressed in % of the untreated control upon the use of active substance A at an application amount of m g/ha or in a concentration of m ppm, • Y stands for the mortality rate expressed in % of the untreated control upon the use of active substance B at an application amount of n g/ha or in a concentration of n ppm, and • E stands for the mortality rate expressed in % of the untreated control upon the use of active substances A and B at an application amount of m and n g/ha or in a concentration of m and n ppm, then [formula]
(§3) If the actual insecticidal mortality rate is greater than calculated, then the combination is […] in its mortality; that is to say, a synergistic effect is present. In this case the mortality rate that is actually observed must be greater than the value for the expected mortality rate (E) calculated from the formula presented above.
(§4) To produce a suitable active substance preparation, one mixes 1 part by weight of active substance with the listed amount of solvent and emulsifier and dilutes the concentrate with water containing an emulsifier at the desired concentration.
Cabbage leaves (Brassica oleracea) are treated by immersion in the active substance preparation of the desired concentration and filled with mustard beetle larvae (Phaedon cochleariae) for as long as the leaves are still damp.
After […] the mortality in % is determined. In the process, 100% means that all beetle larvae were killed; 0% means that no beetle larvae were killed. One determines the determined mortality rate according to the Colby formula (see page 1).

Myzus persicae = Myzus persicae test, immersion of infested cabbage leaves
Description: as §1, §2, §3, §4
Cabbage leaves (Brassica oleracea) that are severely afflicted by the green peach aphid (Myzus persicae) are treated by immersion in the active substance preparation of the desired concentration.
After […] the mortality in % is determined. In the process, 100% means that all green peach aphids were killed; 0% means that no green peach aphids were killed. One calculates the determined mortality rate according to the Colby formula (see page 1).

Aphis gossypii = Aphis gossypii test, immersion of infested cotton leaves; conditions: 24 h, after 1 d
Description: as §1, §2
as §3, with “above. […]” for “above.”
After […] the mortality in % is determined. […] One calculates the determined mortality rate according to the Colby formula (see page 1).

Spodoptera exigua = Spodoptera exigua test, treated cabbage leaves; conditions: 144 h, after 6 d
Description: as §1, §2
as §3, with “above. […]” for “above.”
(§5) After […] the mortality in % is determined. […] One determines the determined mortality rate according to the Colby formula (see page 1).

Spodoptera frugiperda = Spodoptera frugiperda test, treated cabbage leaves; conditions: 72 h, after 3 d
Description: as §1, §2
as §3, with “above. […]” for “above.”
as §5

Heliothis armigera = Heliothis armigera test, treated cotton leaves with larvae; conditions: Helicoverpa armigera, 144 h, after 6 d
Description: as §1, §2, §3, §4
Cotton leaves (Gossypium hirsutum) are treated by immersion in the active substance preparation of the desired concentration and filled with cotton bollworm larvae (Heliothis armigera) for as long as the leaves are still damp.
(§6) After […] the mortality in % is determined. In the process, 100% means that all larvae were killed; 0% means that no larvae were killed. One determines the determined mortality rate according to the Colby formula (see page 1).

[2] = system: Plutella xylostella (sensitive strain); test: Plutella xylostella test (sensitive strain), treated cabbage leaves; conditions: 144 h, after 6 d, normal sensitivity
Description: as §1, §2, §3, §4
(§7) Cabbage leaves (Brassica oleracea) are treated by immersion in the active substance preparation of the desired concentration and filled with cabbage moth larvae (Plutella xylostella) for as long as the leaves are still damp.
as §6

[3] = system: Plutella xylostella (resistant strain); test: Plutella xylostella test (resistant strain), treated cabbage leaves; conditions: 144 h, after 6 d
Description: as §1, §2, §3, §4, §7, §6

## CC1(C)[C@H](C(=O)O[C@H](C#N)c2cccc(Oc3ccccc3)c2)[C@@H]1C=C(Br)Br [Deltamethrin]
[1]
  mortality at 0.16 ppm: 30%

## CC1(C)C(C=C(Cl)Cl)C1C(=O)OC(C#N)c1cccc(Oc2ccccc2)c1 (stereo not drawn) [Alpha-cypermethrin, Alpha-Cypermethrin]
[1]
  mortality at 0.16 ppm: 5%

## Cc1c(COC(=O)C2C(/C=C(\Cl)C(F)(F)F)C2(C)C)cccc1-c1ccccc1 (stereo not drawn) [Bifenthrin]
[1]; 0.8 ppm
  mortality at 0.8 ppm: 35%
Myzus persicae; Myzus persicae, 144 h, read-out: Mortality in % after 6 d, 0.16 ppm, after 6 d
  mortality at 0.16 ppm: 0%

## N#C/N=C1\SCCN1Cc1ccc(Cl)nc1 [Thiacloprid, thiacloprid]
Aphis gossypii; 0.6 ppm
  mortality at 0.6 ppm: 35%
[1]; 3 ppm
  mortality at 3 ppm: 15%
[1]; 20 ppm
  mortality at 20 ppm: 40%
Myzus persicae; 0.8 ppm, after 6 d
  Mortality in % after 6 d: 0% and 10%
Myzus persicae; Myzus persicae, 144 h, read-out: Mortality in % after 6 d, 0.6 ppm, after 6 d
  mortality at 0.6 ppm: 35%
Spodoptera exigua; 15 ppm
  mortality at 15 ppm: 0%
Spodoptera frugiperda; 0.6 ppm
  mortality at 0.6 ppm: 0%
Heliothis armigera
  mortality at 0.12 ppm: 0%
Heliothis armigera; 0.6 ppm
  mortality at 0.6 ppm: 0%
[2]; 0.6 ppm
  mortality at 0.6 ppm: 0%
[3]; 3 ppm
  mortality at 3 ppm: 0%
[3]; 15 ppm
  mortality at 15 ppm: 10%

## CC1(C)C(C=C(Cl)Cl)C1C(=O)OC(C#N)c1ccc(F)c(Oc2ccccc2)c1 (stereo not drawn) [Beta-cyfluthrin, Betacyfluthrin]
Aphis gossypii; 0.12 ppm
  mortality at 0.12 ppm: 5%
[1]; 0.12 ppm
  mortality at 0.12 ppm: 15%
Myzus persicae; Myzus persicae, 144 h, read-out: Mortality in % after 6 d, 0.12 ppm, after 6 d
  mortality at 0.12 ppm: 0%
Spodoptera exigua; 0.6 ppm
  mortality at 0.6 ppm: 25%
Spodoptera frugiperda; 0.12 ppm
  mortality at 0.12 ppm: 5%
Heliothis armigera
  mortality at 0.12 ppm: 0%
[2]
  mortality at 0.024 ppm: 10%
[3]
  mortality at 0.6 ppm: 35%

## CC1(C)C(/C=C(\Cl)C(F)(F)F)C1C(=O)OC(C#N)c1cccc(Oc2ccccc2)c1 (stereo not drawn) [Lambda-cyhalothrin]
Heliothis armigera
  mortality at 0.12 ppm: 55%
[2]
  mortality at 0.024 ppm: 40%
[3]
  mortality at 0.6 ppm: 40%

— US20070276013A1, “Active Substance Combinations with Insecticidal Properties” (priority 2004, published 2007)
